Data: PMC11087482, “Discovering allatostatin type-C receptor specific agonists” (Nature Communications, 2024)
Values after ≈ are worked out from the molar mass of the structure shown. Where two headings read alike, the source gives them in different places. Marks after values point to notes of the source that are not given here. Positions of bridges follow the written chain, without caps; N, C: chain ends. Non-standard residues stand in square brackets, D forms with d. Residues, ends and D or L forms follow the SMILES beside them. pGlu = O=C1CC[C@@H](C(=O)O)N1

Tests used:
[1] = test system: Leptinotarsa decemlineata second-instar larvae; assay: Side effect tests on potato beetle larvae, topical application; type: in vivo; conditions: 1000 ppm topical, second-instar larvae, days 3, 7, 14
Method: (§1) Pine processionary moth 2nd instar larvae of Thaumetopoea pityocampa for toxicity tests, adult, and 1st instar larvae of predator Calosoma sycophanta, 2nd instar larvae of potato beetle Leptinotarsa decemlineata were used for side effect assays.
(§2) L. decemlineata larvae were collected from a potato field in Kahramankazan district of Ankara province in 2022. The larvae were cultured in the laboratory under 60% (±10) humidity, 27(±2) °C temperature, and 16:8 light: dark photoperiod with potato plant leaves.
(§3) Effective molecules of toxicity tests were applied on adults, 1st instar larvae of predator C. sycophanta, and 2nd instar larvae of potato beetle L. decemlineata to evaluate side effects.
(§4) 5 µL of 1000 ppm dose were applied topically on the dorsal surface of the head-prothorax junction 2nd instar larvae of potato beetle. 30 larvae were used in assays, and larvae were placed on potato leaves inside the water-filled cups for feeding. Negative control groups were as previously described. Dimilin 25 WP (%25 diflubenzuron) was used as a positive control on L. decemlineata. Experiments were carried out with three repeats.
(§5) Insect deaths were evaluated on the 3rd, 7th, and 14th days in toxicity and side effect experiments. The ones that were not feeding or not responding by a movement to stimulation with a soft-tipped brush were accepted as dead. Percentage mortality values generated on the 14th day were corrected using Abbott’s formula[84]. Statistical analyses were executed with IBM SPSS Statistics (v26.0) and R Studio (2022.02.0), and two-way ANOVA and Tukey test were performed to detect the data’s statistical significance. Lethal concentration values of LC50–90 (dose that produces 50-90% mortality in the population) with 95% confidence intervals (CI) and slopes were obtained using PoloPlus software (LeOra Software, USA) for mortality values assessed on the 14th day for T. pityocampa and the 3rd day for L. decemlineata. The LC50–90 values were considered to be similar if their 95% CIs overlapped (P > 0.05)[85]. Analysis between-subject effects on T. pityocampa larva length; one-way ANOVA tests assessing the impacts of molecule treatment on T. pityocampa larvae on larva length; and analysis of between-subjects effects on T. pityocampa head capsule width, alongside one-way ANOVA tests regarding the effects of molecule treatment on T. pityocampa larvae to head capsule width are detailed in the Source Data File (Source Data Supplementary Data Tables 1–4). Source data is available as Source Data File.

T. pityocampa larvae [2] = assay: Larval body allometry (body length, head capsule width) on day 14 of treatment; type: in vivo, Thaumetopoea pityocampa; conditions: for Larva Length, Mean Difference (I-J) versus Control / head capsule width, Mean Difference (I-J) versus Control: day 14, Tukey HSD, n = 20; for head capsule width / total body length: 14th day of treatment
Method: In addition, the ability of the identified hit compounds to alter larval body allometry was tested through measuring total body lengths and head capsule widths on the 14th day of treatment (Fig. 7).
as §5

AlstR-C = assay: GloSensor cAMP assay after forskolin stimulation; type: cell-based, Thaumetopoea pityocampa; conditions: after 10 µM forskolin
Method: The ability of the hit compounds to activate the Gαi pathway was evaluated using a commercial cAMP assay (GloSensor, Promega). Prior to ligand treatment, cells were stimulated with 10 µM forskolin to elevate intracellular cAMP levels, and the ability of each ligand and control to downregulate cAMP was evaluated after 1 h. […] As an additional control, the ability of the hit compounds to activate a different receptor (5-HTR4) was also assessed using an AP-TGFα assay (Fig. 4k).
HEK293 cells were seeded 30,000 cells per well in DMEM 10% FBS without P/S to Greiner 655094 96-well plates 1 day before the transfection. Following overnight incubation at 37 °C, the cells were cotransfected with plasmids of the desired receptor along with GloSensor^TM cAMP plasmid using Lipofectamine™ 3000 Transfection Reagent and incubated 24 h at 37 °C 5% CO2 incubator. […] The baseline development was measured on a Thermo Scientific Fluoroskan Ascent FL Microplate Fluorometer and Luminometer plate reader following the cell stimulation with 10 μL 10 μM forskolin, approximately 1 h. […] Luminescence was measured at 1 read per well every 2 min, scaling factor was 10. Data were analyzed by calculating the area under the curve (AUC) over the ~2-h measurement period. Statistical significance was measured with ANOVA, and multiple comparisons were done with Dunnett’s Test. […]

T. pityocampa larvae [3] = assay: Toxicity tests, topical application on second instar larvae; type: in vivo; conditions: for Mean mortality: highest effect
Method: as §1
T. pityocampa larvae were collected from red pine trees, Pinus brutia, in Nallıhan district of Ankara, Türkiye, in 2021. Larvae were cultured in 60 (±10) % humidity, 27 (±2) °C, and 16:8 light: dark photoperiod and were fed with red pine needles.
Stock solutions of the molecules were dissolved in DMSO, AST-C peptide was dissolved in PBS supplemented with 0.1% BSA pH 7.4. Dilutions were prepared in PBS supplemented with 0.1% BSA pH 7.4 in 50, 100, 250, 500, 750, and 1000 ppm (mg/L) concentrations and later placed in an ultrasonic bath (Sonorex, Bandelin) for ~10 min at 37 °C until all precipitates had vanished. Toxicity tests were conducted 1 day after larvae collection. 5 µL of doses were applied on the dorsal surface of the head-prothorax junction topically. […] Two negative control groups were prepared as PBS-applied and no application. Following the procedures, larvae were fed with 15 g P. brutia needles. Experiments were carried out on 10 larvae for each dosage, with three repeats.
as §5

T. pityocampa AlstR-C = assay: TGF-α shedding assay on HEK293 cells overexpressing the receptor; type: cell-based, Thaumetopoea pityocampa; conditions: Gαq/i1, read-out: EC50 (AP-TGFα release)
Method: HEK293 cells were maintained in DMEM (PAN Biotech) supplemented with 10% FBS (Gibco) and 1% Penicillin-Streptomycin (Gibco) at 37 °C in a 5% CO2 incubator. Cells were seeded in 6-well plates before transfection, and Lipofectamine™ 3000 Transfection Reagent (Thermo Fisher Scientific) was used for transfection in compliance with the manufacturer’s instructions.
HEK293 cells were seeded in DMEM 10% FBS without P/S to 6-well plates 1 day before the transfection. Following overnight incubation at 37 °C, the cells were cotransfected with plasmids of the desired receptor (100 ng)[44],[48] or pcDNA3.1, AP-TGFα (250 ng), and Gαq/i1 (10 ng) using Lipofectamine™ 3000 Transfection Reagent and incubated 24 h at 37 °C 5% CO2 incubator. Plasmids used for the TGF-α shedding assay were kindly gifted from Prof. Asuka Inoue[82],[83]. TGF-α Shedding Assay was used to measure the activity of studied compounds[83]. Cell harvesting was accomplished with TrypLE™ Express Enzyme (Gibco) since it was previously noted that trypsinization results in a higher background signal. After reseeding the cells in a 96-well plate, 10x concentrations of the compounds prepared in HBSS were applied for stimulation. For compounds not readily soluble in water, a concentration of 0.01 % (w/v) bovine serum albumin (BSA) in HBSS was used for dilution. Each treatment was performed with four replicas. Alkaline phosphatase activity was measured before and after 1-h and 2-h incubation at room temperature, and the absorbance of the plates at 405 nm was measured. AP-TGF-α release signals were fitted to a four-parameter sigmoidal dose-response curve, and EC50 values were calculated using GraphPad Prism 9.5.

[4] = test system: Calosoma sycophanta first-instar larvae and adults; assay: Side effect tests on predatory insect, topical application; type: in vivo; conditions: 1000 ppm topical, days 3, 7, 14
Method: as §1
C. sycophanta adults and T. pityocampa nests were collected from Korkuteli forests in Antalya 2022. T. pityocampa nests were stored at +4 °C to prevent pupae formation. 20 adult C. sycophanta were placed in clear plastic boxes (30 × 45 × 30 cm) with moist soil at the bottom. Adults were fed with T. pityocampa larvae regularly. After mating, C. sycophanta eggs were collected from the soil with a soft tip brush, and eggs were reserved in moist cotton until eggs cracked. Subsequently, C. sycophanta larvae were placed individually in clear, hard plastic cups (180 cm^3) containing moist soil and covered with glass. One T. pityocampa larva per day was added to each cup for feeding. Predator insects were cultured in 65 (±5) % humidity, 25 (±5) °C, and 16:8 light: dark photoperiod.
as §3
C. sycophanta larvae and adults were placed individually in clear, hard plastic cups (180 cc) containing moist soil. 5 µL of 1000 ppm dose was applied topically on the head-prothorax junction’s dorsal surface. 50 larvae and adults were used in the experiments. One T. pityocampa larva per day was added to each cup for feeding. Two negative controls were PBS-applied and no application groups.
as §5, with “Analysis between-subject effects on T. pityocampa larva length; one-way ANOVA tests assessing the impacts of molecule treatment on T. pityocampa larvae on larva length; and analysis of between-subjects effects on T. pityocampa head capsule width, alongside one-way ANOVA tests regarding the effects of molecule treatment on T. pityocampa larvae to head capsule width are detailed in the Source Data File (Source Data Supplementary Data Tables 1–4). Source data is available as Source Data File.” left out

[5] = Side effect tests on potato beetle larvae, topical application; type: in vivo; conditions: Leptinotarsa decemlineata, in vivo
Method: as §1, §2, §3, §4, §5

[6] = parameters: method as in PMID 19540423, PMID 20936640; conditions: cited from earlier work
[7] = Thaumetopoea pityocampa, topical, 336 h
[8] = Thaumetopoea pityocampa, topical, 336 h, read-out: LC50 (95% CI)
[9] = day 14 mortality, Probit analysis

COc1ccc([C@H](CC(=O)NCc2ccncc2)c2cn(Cc3ccc(C)cc3)c3ccccc23)cc1OCc1ccccc1 [V029-3547]
Insect deaths (mortality rate) [1]: below 10% | Larva Length, Mean Difference (I-J) versus Control (T. pityocampa larvae [2]): -8,705* mm | head capsule width, Mean Difference (I-J) versus Control (T. pityocampa larvae [2]): -1,120* mm | ability to downregulate cAMP (RLU) (AlstR-C): greatest ability to modulate cAMP | Mean mortality (T. pityocampa larvae [3]; 14 days post-administration): 83.7% | LC50 (T. pityocampa larvae [3]; [7]): 406 µg/mL (≈ 682 µM) | LC50 (T. pityocampa larvae [3]; [8]): 406 µg/mL (≈ 682 µM) | mortality (T. pityocampa larvae [3]; after 3 days, >500 ppm): > 63.3% | LC90 (95% CI) (T. pityocampa larvae [3]; [9]): 900.815 (696.503–1634.450) mg/L | EC50 (T. pityocampa AlstR-C): 8.17 µM | Insect deaths (mortality rate) [4]: below 10%

O=C1c2n[nH]c(-c3ccccc3O)c2C(c2cccc(OCc3ccccc3)c2)N1CC1CCCO1 (stereo not drawn) [D074-0034]
Insect deaths (mortality rate) [1]: below 10% | Larva Length, Mean Difference (I-J) versus Control (T. pityocampa larvae [2]): -7,845* mm | head capsule width, Mean Difference (I-J) versus Control (T. pityocampa larvae [2]): -1,000* mm | LC50 (T. pityocampa larvae [3]; [7]): 443 µg/mL (≈ 920 µM) | LC50 (T. pityocampa larvae [3]; [8]): 444 µg/mL (≈ 921 µM) | EC50 (T. pityocampa AlstR-C): 4.7 µM | Insect deaths (mortality rate) [4]: below 10%

O=C(NC(=O)c1c(F)cccc1F)Nc1ccc(Cl)cc1 [Diflubenzuron, diflubenzuron, reference compound]
LC50 at 3 days ([5]; L. decemlineata larvae, positive control, 3rd day mortality): 38.5 µg/mL (≈ 124 µM) | LC50 at 3 days ([5]; potato beetle larvae, after 3 days of application): 38 µg/mL (≈ 122 µM)

O=C(C[C@@H]1NC(=O)c2ccccc2NC1=O)NCCn1c(=O)c(O)nc2ccccc21 [J100-0311]
Insect deaths (mortality rate) [1]: below 10% | Larva Length, Mean Difference (I-J) versus Control (T. pityocampa larvae [2]): -8,015* mm | head capsule width, Mean Difference (I-J) versus Control (T. pityocampa larvae [2]): -1,075* mm | LC50 (T. pityocampa larvae [3]; [7]): 411 µg/mL (≈ 975 µM) | LC50 (T. pityocampa larvae [3]; [8]): 412 µg/mL (≈ 977 µM) | LC90 (95% CI) (T. pityocampa larvae [3]; [9]): 6740.368 (2743.061–6.275 × 10^4) mg/L | EC50 (T. pityocampa AlstR-C): 5.66 µM | Insect deaths (mortality rate) [4]: below 10%

CC[C@H](C)[C@@H]1NC(=O)[C@@H]2CCCN2C(=O)[C@H](CC(N)=O)NC(=O)[C@H](Cc2ccccc2)NC(=O)[C@H](Cc2ccc(O)cc2)NC(=O)[C@@H](NC(=O)[C@H](CCC(N)=O)NC(=O)[C@H](CCCNC(=N)N)NC(=O)[C@H](Cc2ccccc2)NC(=O)[C@H](CCCNC(=N)N)NC(=O)[C@@H](NC(=O)[C@@H]2CCC(=O)N2)C(C)C)CSSC[C@@H](C(=O)N[C@@H](Cc2ccccc2)C(=O)O)NC(=O)[C@H](CO)NC1=O [AST-C, reference compound] ([pGlu]VRFRQCYFNPISCF-OH; disulfide 7-14; C-terminus assumed)
shelf life and degradation in the environment [6]: comparatively short shelf life and undergoes rapid degradation in the environment | head capsule width (T. pityocampa larvae [2]): Statistically significant decreases | total body length (T. pityocampa larvae [2]): Statistically significant decreases | Larva Length, Mean Difference (I-J) versus Control (T. pityocampa larvae [2]): -9,070* mm | head capsule width, Mean Difference (I-J) versus Control (T. pityocampa larvae [2]): -1,105* mm | ability to downregulate cAMP (RLU) (AlstR-C): most significant impact | Mean mortality (T. pityocampa larvae [3]; 14 days post-administration): 100% | LC50 (T. pityocampa larvae [3]; day 14 after the application, Probit analysis): 152 ppm | LC50 (95% CI) (T. pityocampa larvae [3]; [9]): 152.414 (101.993–209.528) mg/L | LC90 (95% CI) (T. pityocampa larvae [3]; [9]): 782.851 (512.785–1616.980) mg/L | EC50 (T. pityocampa AlstR-C): 0.000623 µM

O=C1c2n[nH]c(-c3ccccc3O)c2C(c2cccc(Oc3ccccc3)c2)N1CC1CCCO1 (stereo not drawn) [D074-0013]
Insect deaths (mortality rate) [1]: below 10% | head capsule width (T. pityocampa larvae [2]): small compared to other molecules | total body length (T. pityocampa larvae [2]): small compared to other molecules | Larva Length, Mean Difference (I-J) versus Control (T. pityocampa larvae [2]): -4,445* mm | mortality rate (T. pityocampa larvae [3]; 14 days post-administration, highest dose): below 50% | LC50 (T. pityocampa larvae [3]; [8]): > 1000 µg/mL | mortality (T. pityocampa larvae [3]; end of day 7, 1000 ppm): 27% | EC50 (T. pityocampa AlstR-C): 1.42 µM | Insect deaths (mortality rate) [4]: below 10%
